How the values were obtained:
Assay in all cases: relative viability (nuclei count vs DMSO), 5 days (fraction); higher = more cells survive
201T = test system: 201T
Procedure, shortened: (§1)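 Each reported value is a median over duplicate plates. It expresses relative viability: treated-well nuclei count divided by vehicle-well nuclei count. Lung cancer cell lines in 1536-well plates were dosed by pin tool a day after seeding, alone with one drug or with a fixed anchor-drug dose plus five library-drug doses (not always all listed) in √10 steps, and nuclei were counted after 5 days.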

ABC-1 = test system: ABC-1
Procedure, shortened: as §1

BEN = test system: BEN
Procedure, shortened: as §1

CAL-12T = test system: CAL-12T
Procedure, shortened: as §1

COR-L 105 = test system: COR-L 105
Procedure, shortened: as §1

EKVX = test system: EKVX
Procedure, shortened: as §1

HARA = test system: HARA
Procedure, shortened: as §1

HCC-366 = test system: HCC-366
Procedure, shortened: as §1

LK-2 = test system: LK-2
Procedure, shortened: as §1

LOU-NH91 = test system: LOU-NH91
Procedure, shortened: as §1

NCI-H1437 = test system: NCI-H1437
Procedure, shortened: as §1

NCI-H1666 = test system: NCI-H1666
Procedure, shortened: as §1

NCI-H2009 = test system: NCI-H2009
Procedure, shortened: as §1

NCI-H3122 = test system: NCI-H3122
Procedure, shortened: as §1

NCI-H441 = test system: NCI-H441
Procedure, shortened: as §1

NCI-H460 = test system: NCI-H460
Procedure, shortened: as §1

NCI-H661 = test system: NCI-H661
Procedure, shortened: as §1

NCI-H727 = test system: NCI-H727
Procedure, shortened: as §1

PC-14 = test system: PC-14
Procedure, shortened: as §1

Cc1sc2c(c1C)C(c1ccc(Cl)cc1)=N[C@@H](CC(=O)OC(C)(C)C)c1nnc(C)n1-2 [JQ1] + C[C@]1(O)C[C@@H](c2nc(-c3ccc4ccc(-c5ccccc5)nc4c3)c3c(N)nccn32)C1 [Linsitinib] (partner 1 µM)
relative viability (201T; first compound 0.04 µM): 0.996 | relative viability (201T; first compound 0.1265 µM): 1.08 | relative viability (201T; first compound 0.4 µM): 0.924 | relative viability (201T; first compound 1.265 µM): 0.607 | relative viability (201T; first compound 4 µM): 0.511 | relative viability (ABC-1; first compound 0.04 µM): 0.716 | relative viability (ABC-1; first compound 0.1265 µM): 0.772 | relative viability (ABC-1; first compound 0.4 µM): 0.564 | relative viability (ABC-1; first compound 1.265 µM): 0.356 | relative viability (ABC-1; first compound 4 µM): 0.275 | relative viability (BEN; first compound 0.04 µM): 0.886 | relative viability (BEN; first compound 0.1265 µM): 0.742 | relative viability (BEN; first compound 0.4 µM): 0.524 | relative viability (BEN; first compound 1.265 µM): 0.347 | relative viability (BEN; first compound 4 µM): 0.224 | relative viability (CAL-12T; first compound 0.04 µM): 0.793 | relative viability (CAL-12T; first compound 0.1265 µM): 0.794 | relative viability (CAL-12T; first compound 0.4 µM): 0.68 | relative viability (CAL-12T; first compound 1.265 µM): 0.275 | relative viability (CAL-12T; first compound 4 µM): 0.232 | relative viability (COR-L 105; first compound 0.04 µM): 0.868 | relative viability (COR-L 105; first compound 0.1265 µM): 0.579 | relative viability (COR-L 105; first compound 0.4 µM): 0.349 | relative viability (COR-L 105; first compound 1.265 µM): 0.299 | relative viability (COR-L 105; first compound 4 µM): 0.319 | relative viability (EKVX; first compound 0.04 µM): 0.935 | relative viability (EKVX; first compound 0.1265 µM): 0.813 | relative viability (EKVX; first compound 0.4 µM): 1.01 | relative viability (EKVX; first compound 1.265 µM): 0.72 | relative viability (EKVX; first compound 4 µM): 0.461 | relative viability (HARA; first compound 0.04 µM): 0.902 | relative viability (HARA; first compound 0.1265 µM): 0.624 | relative viability (HARA; first compound 0.4 µM): 0.399 | relative viability (HARA; first compound 1.265 µM): 0.205 | relative viability (HARA; first compound 4 µM): 0.163 | relative viability (HCC-366; first compound 0.04 µM): 0.6 | relative viability (HCC-366; first compound 0.4 µM): 0.639 | relative viability (HCC-366; first compound 1.265 µM): 0.326 | relative viability (HCC-366; first compound 4 µM): 0.193 | relative viability (LK-2; first compound 0.04 µM): 0.393 | relative viability (LK-2; first compound 0.1265 µM): 0.662 | relative viability (LK-2; first compound 0.4 µM): 0.233 | relative viability (LK-2; first compound 1.265 µM): 0.176 | relative viability (LK-2; first compound 4 µM): 0.109 | relative viability (LOU-NH91; first compound 0.04 µM): 0.905 | relative viability (LOU-NH91; first compound 0.1265 µM): 0.777 | relative viability (LOU-NH91; first compound 0.4 µM): 0.579 | relative viability (LOU-NH91; first compound 1.265 µM): 0.474 | relative viability (LOU-NH91; first compound 4 µM): 0.489 | relative viability (NCI-H1437; first compound 0.04 µM): 0.897 | relative viability (NCI-H1437; first compound 0.1265 µM): 0.804 | relative viability (NCI-H1437; first compound 0.4 µM): 0.481 | relative viability (NCI-H1437; first compound 1.265 µM): 0.228 | relative viability (NCI-H1437; first compound 4 µM): 0.18 | relative viability (NCI-H1666; first compound 0.04 µM): 0.811 | relative viability (NCI-H1666; first compound 0.1265 µM): 0.844 | relative viability (NCI-H1666; first compound 0.4 µM): 0.842 | relative viability (NCI-H1666; first compound 1.265 µM): 0.475 | relative viability (NCI-H1666; first compound 4 µM): 0.484 | relative viability (NCI-H2009; first compound 0.04 µM): 1.13 | relative viability (NCI-H2009; first compound 0.1265 µM): 0.995 | relative viability (NCI-H2009; first compound 0.4 µM): 0.724 | relative viability (NCI-H2009; first compound 1.265 µM): 0.279 | relative viability (NCI-H2009; first compound 4 µM): 0.263 | relative viability (NCI-H3122; first compound 0.04 µM): 0.966 | relative viability (NCI-H3122; first compound 0.1265 µM): 0.931 | relative viability (NCI-H3122; first compound 0.4 µM): 0.97 | relative viability (NCI-H3122; first compound 1.265 µM): 0.757 | relative viability (NCI-H3122; first compound 4 µM): 0.625 | relative viability (NCI-H441; first compound 0.04 µM): 0.774 | relative viability (NCI-H441; first compound 0.1265 µM): 0.484 | relative viability (NCI-H441; first compound 0.4 µM): 0.579 | relative viability (NCI-H441; first compound 1.265 µM): 0.386 | relative viability (NCI-H441; first compound 4 µM): 0.306 | relative viability (NCI-H460; first compound 0.04 µM): 0.661 | relative viability (NCI-H460; first compound 0.1265 µM): 0.54 | relative viability (NCI-H460; first compound 0.4 µM): 0.278 | relative viability (NCI-H460; first compound 1.265 µM): 0.0494 | relative viability (NCI-H460; first compound 4 µM): 0.0357 | relative viability (NCI-H661; first compound 0.04 µM): 0.635 | relative viability (NCI-H661; first compound 0.1265 µM): 0.512 | relative viability (NCI-H661; first compound 0.4 µM): 0.391 | relative viability (NCI-H661; first compound 1.265 µM): 0.305 | relative viability (NCI-H661; first compound 4 µM): 0.352 | relative viability (NCI-H727; first compound 0.04 µM): 0.374 | relative viability (NCI-H727; first compound 0.1265 µM): 0.313 | relative viability (NCI-H727; first compound 0.4 µM): 0.343 | relative viability (NCI-H727; first compound 1.265 µM): 0.244 | relative viability (NCI-H727; first compound 4 µM): 0.234 | relative viability (PC-14; first compound 0.04 µM): 0.936 | relative viability (PC-14; first compound 0.1265 µM): 0.735 | relative viability (PC-14; first compound 0.4 µM): 0.779 | relative viability (PC-14; first compound 1.265 µM): 0.611 | relative viability (PC-14; first compound 4 µM): 0.356

Source: the supplement of paper PMC10307832
